Measurements from patent US20230183219A1, “CONDENSED SUBSTITUTED HYDROPYRROLES AS ANTAGONISTS OF THE MUSCARINIC ACETYLCHOLINE RECEPTOR M4” (Vanderbilt University, priority 2020, published 2023).

Molecular target: T1, Human M4 (Homo sapiens, UniProt P08173)
T1 construct: Human or rat M4 cDNA, along with the chimeric G protein Gqi5, were transfected into Chinese hamster ovary (CHO-K1) cells; expressed in transfected cells; host or cells: CHO-K1 (Chinese hamster ovary, ATCC), stably co-expressing Gqi5
T1 sequence (P08173 1-479): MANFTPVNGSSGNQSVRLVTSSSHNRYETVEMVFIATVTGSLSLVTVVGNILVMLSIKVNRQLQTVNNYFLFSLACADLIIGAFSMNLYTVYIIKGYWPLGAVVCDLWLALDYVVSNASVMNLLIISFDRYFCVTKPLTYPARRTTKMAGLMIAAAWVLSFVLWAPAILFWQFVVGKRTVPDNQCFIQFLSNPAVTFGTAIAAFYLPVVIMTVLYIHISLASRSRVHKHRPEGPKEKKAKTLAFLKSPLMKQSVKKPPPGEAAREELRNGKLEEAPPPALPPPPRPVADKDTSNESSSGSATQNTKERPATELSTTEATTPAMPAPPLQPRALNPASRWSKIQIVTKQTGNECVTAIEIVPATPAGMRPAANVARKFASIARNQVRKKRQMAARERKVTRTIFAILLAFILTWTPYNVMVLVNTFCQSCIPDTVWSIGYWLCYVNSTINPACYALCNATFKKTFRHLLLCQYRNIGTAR
Assay: mAChR M4 cell-based functional assay (calcium flux, decrease of EC80 acetylcholine response)
Conditions: for remaining activity at 30 µM: % ACh maximum at 30 μM, read-out: Human M4 Emin; for IC50: M4/Gqi5/CHO-K1 cells, decrease of response to EC80 acetylcholine
In short: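 CHO-K1 cells stably co-expressing M4 and chimeric Gqi5, loaded with Fluo-4 AM; calcium flux read on FDSS. Compound added at 2 s, EC20 acetylcholine at 143 s, EC80 acetylcholine at 268 s. IC50 from concentration-dependent decrease of the EC80 response, four-parameter logistic fit; 10-point 1:3 titrations.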

| Compound | remaining activity at 30 µM [%] | IC50 [nM] |
| --- | --- | --- |
| Cc1cc(-c2cc(C(F)(F)F)c(N[C@H]3C[C@@H]4CN(CC5CCOCC5)C[C@@H]4C3)nn2)c(C)cc1F [Example 51, (3aR,5s,6aS)-N-(6-(4-fluoro-2,5-dimethylphenyl)-4-(trifluoromethyl)pyridazin-3-yl)-2-((tetrahydro-2H-pyran-4-yl)methyl)octahydro-cyclopenta[c]pyrrol-5-amine] | 3 | 242 |
| COc1cc(C)c(-c2cc(C(F)(F)F)c(N[C@H]3C[C@@H]4CN(CC5CCOCC5)C[C@@H]4C3)nn2)cc1C [Example 52, (3aR,5s,6aS)-N-(6-(4-methoxy-2,5-dimethylphenyl)-4-(trifluoromethyl)pyridazin-3-yl)-2-((tetrahydro-2H-pyran-4-yl)methyl)octahydro-cyclopenta[c]pyrrol-5-amine] | 3 | 115 |
| Cc1ccc(C(F)(F)F)cc1-c1cc(C(F)(F)F)c(N[C@H]2C[C@@H]3CN(CC4CCOCC4)C[C@@H]3C2)nn1 [Example 53, (3aR,5s,6aS)-N-(6-(2-methyl-5-(trifluoromethyl)phenyl)-4-(trifluoromethyl)pyridazin-3-yl)-2-((tetrahydro-2H-pyran-4-yl)methyl)octahydro-cyclopenta[c]pyrrol-5-amine] | 3 | 315 |
| N#Cc1ccc(F)c(-c2cc(C(F)(F)F)c(N[C@H]3C[C@@H]4CN(CC5CCOCC5)C[C@@H]4C3)nn2)c1 [Example 54, 4-fluoro-3-(6-(((3aR,5s,6aS)-2-((tetrahydro-2H-pyran-4-yl)methyl)octahydro-cyclopenta[c]pyrrol-5-yl)amino)-5-(trifluoro-methyl)pyridazin-3-yl)benzonitrile] | 4 | 223 |
| N#Cc1c(F)ccc(-c2cc(C(F)(F)F)c(N[C@H]3C[C@@H]4CN(CC5CCOCC5)C[C@@H]4C3)nn2)c1F [Example 55, 2,6-difluoro-3-(6-(((3aR,5s,6aS)-2-((tetrahydro-2H-pyran-4-yl)methyl)octahydro-cyclopenta[c]pyrrol-5-yl)amino)-5-(trifluoro-methyl)pyridazin-3-yl)benzonitrile] | 4 | 401 |
| CCOc1ccc(-c2cc(C(F)(F)F)c(N[C@H]3C[C@@H]4CN(CC5CCOCC5)C[C@@H]4C3)nn2)c(F)c1F [Example 56, (3aR,5s,6aS)-N-(6-(4-ethoxy-2,3-difluorophenyl)-4-(trifluoro-methyl)pyridazin-3-yl)-2-((tetrahydro-2H-pyran-4-yl)methyl)octahydro-cyclopenta[c]pyrrol-5-amine] | 3 | 234 |
| COc1ccc(F)c(-c2cc(C(F)(F)F)c(N[C@H]3C[C@@H]4CN(CC5CCOCC5)C[C@@H]4C3)nn2)c1 [Example 57, (3aR,5s,6aS)-N-(6-(2-fluoro-5-methoxyphenyl)-4-(trifluoromethyl)pyridazin-3-yl)-2-((tetrahydro-2H-pyran-4-yl)methyl)octahydro-cyclopenta[c]pyrrol-5-amine] | 3 | 278 |
| FC(F)(F)Oc1ccccc1-c1cc(C(F)(F)F)c(N[C@H]2C[C@@H]3CN(CC4CCOCC4)C[C@@H]3C2)nn1 [Example 58, (3aR,5s,6aS)-2-((tetrahydro-2H-pyran-4-yl)methyl)-N-(6-(2-(trifluoro-methoxy)phenyl)-4-(trifluoromethyl)pyridazin-3-yl)octahydro-cyclopenta[c]pyrrol-5-amine] | 3 | 249 |
| Cc1ccc(-c2cc(C(F)(F)F)c(N[C@H]3C[C@@H]4CN(CC5CCOCC5)C[C@@H]4C3)nn2)c(C)c1 [Example 59, (3aR,5s,6aS)-N-(6-(2,4-dimethylphenyl)-4-(trifluoromethyl)pyridazin-3-yl)-2-((tetrahydro-2H-pyran-4-yl)methyl)octahydro-cyclopenta[c]pyrrol-5-amine] | 3 | 67.7 |
| N#Cc1cccc(-c2cc(C(F)(F)F)c(N[C@H]3C[C@@H]4CN(CC5CCOCC5)C[C@@H]4C3)nn2)c1F [Example 60, 2-fluoro-3-(6-(((3aR,5s,6aS)-2-((tetrahydro-2H-pyran-4-yl)methyl)octahydro-cyclopenta[c]pyrrol-5-yl)amino)-5-(trifluoro-methyl)pyridazin-3-yl)benzonitrile] | 4 | 232 |
| COc1ccc(-c2cc(C(F)(F)F)c(N[C@H]3C[C@@H]4CN(CC5CCOCC5)C[C@@H]4C3)nn2)c(F)c1 [Example 61, (3aR,5s,6aS)-N-(6-(2-fluoro-4-methoxyphenyl)-4-(trifluoromethyl)pyridazin-3-yl)-2-((tetrahydro-2H-pyran-4-yl)methyl)octahydro-cyclopenta[c]pyrrol-5-amine] | 3 | 233 |
| COc1ccc(-c2cc(C(F)(F)F)c(N[C@H]3C[C@@H]4CN(CC5CCOCC5)C[C@@H]4C3)nn2)c(F)c1F [Example 62, (3aR,5s,6aS)-N-(6-(2,3-difluoro-4-methoxyphenyl)-4-(trifluoromethyl)pyridazin-3-yl)-2-((tetrahydro-2H-pyran-4-yl)methyl)octahydro-cyclopenta[c]pyrrol-5-amine] | 3 | 258 |
| O=C1Cc2cc(-c3cc(C(F)(F)F)c(N[C@H]4C[C@@H]5CN(CC6CCOCC6)C[C@@H]5C4)nn3)ccc2N1 [Example 63, 5-(6-(((3aR,5s,6aS)-2-((tetrahydro-2H-pyran-4-yl)methyl)octahydro-cyclopenta[c]pyrrol-5-yl)amino)-5-(trifluoro-methyl)pyridazin-3-yl)indolin-2-one] | 3 | 95.6 |
| COc1ccccc1-c1cc(C(F)(F)F)c(N[C@H]2C[C@@H]3CN(CC4CCOCC4)C[C@@H]3C2)nn1 [Example 64, (3aR,5s,6aS)-N-(6-(2-methoxyphenyl)-4-(trifluoromethyl)pyridazin-3-yl)-2-((tetrahydro-2H-pyran-4-yl)methyl)octahydro-cyclopenta[c]pyrrol-5-amine] | 3 | 54 |
| FC(F)(F)c1cc(-c2ccccc2)nnc1N[C@H]1C[C@@H]2CN(CC3CCOCC3)C[C@@H]2C1 [Example 65, (3aR,5s,6aS)-N-(6-phenyl-4-(trifluoromethyl)pyridazin-3-yl)-2-((tetrahydro-2H-pyran-4-yl)methyl)octahydro-cyclopenta[c]pyrrol-5-amine] | 3 | 69 |
| Cn1cc(-c2cc(C(F)(F)F)c(N[C@H]3C[C@@H]4CN(CC5CCOCC5)C[C@@H]4C3)nn2)cn1 [Example 66, (3aR,5s,6aS)-N-(6-(1-methyl-1H-pyrazol-4-yl)-4-(trifluoro-methyl)pyridazin-3-yl)-2-((tetrahydro-2H-pyran-4-yl)methyl)octahydro-cyclopenta[c]pyrrol-5-amine] | 3 | 119 |
| Cc1ccncc1-c1cc(C(F)(F)F)c(N[C@H]2C[C@@H]3CN(CC4CCOCC4)C[C@@H]3C2)nn1 [Example 67, (3aR,5s,6aS)-N-(6-(4-methylpyridin-3-yl)-4-(trifluoromethyl)pyridazin-3-yl)-2-((tetrahydro-2H-pyran-4-yl)methyl)octahydro-cyclopenta[c]pyrrol-5-amine] | 3 | 133 |
| FC(F)(F)c1cc(-c2cccnc2)nnc1N[C@H]1C[C@@H]2CN(CC3CCOCC3)C[C@@H]2C1 [Example 68, (3aR,5s,6aS)-N-(6-(pyridin-3-yl)-4-(trifluoro-methyl)pyridazin-3-yl)-2-((tetrahydro-2H-pyran-4-yl)methyl)octahydro-cyclopenta[c]pyrrol-5-amine] | 3 | 161 |
| Fc1ccc(F)c(-c2cc(C(F)(F)F)c(N[C@H]3C[C@@H]4CN(C[C@@H]5COCCO5)C[C@@H]4C3)nn2)c1 [Example 69, (3aR,5s,6aS)-2-(((R)-1,4-dioxan-2-yl)methyl)-N-(6-(2,5-difluorophenyl)-4-(trifluoromethyl)pyridazin-3-yl)octahydro-cyclopenta[c]pyrrol-5-amine] | 3 | 242 |
| Fc1ccc(F)c(-c2cc(C(F)(F)F)c(N[C@H]3C[C@@H]4CN(C[C@H]5COCCO5)C[C@@H]4C3)nn2)c1 [Example 70, (3aR,5s,6aS)-2-(((S)-1,4-dioxan-2-yl)methyl)-N-(6-(2,5-difluorophenyl)-4-(trifluoromethyl)pyridazin-3-yl)octahydro-cyclopenta[c]pyrrol-5-amine] | 3 | 142 |
| Cc1ccc(C)c(-c2cc(C(F)(F)F)c(N[C@H]3C[C@@H]4CN(C[C@@H]5COCCO5)C[C@@H]4C3)nn2)c1 [Example 71, (3aR,5s,6aS)-2-(((R)-1,4-dioxan-2-yl)methyl)-N-(6-(2,5-dimethylphenyl)-4-(trifluoromethyl)pyridazin-3-yl)octahydro-cyclopenta[c]pyrrol-5-amine] | 3 | 183 |
